Experiment [1] concerns the target ENPP1 on MDA-MB-231 cells (Homo sapiens (Human), UniProt P22413). Nature of the experiment: Inhibition of ENPP1 hydrolysis of AMP p-nitrophenyl ester on MDA-MB-231 cells (Assay 2). It counts as cell-based. The following applies: pNP-AMP 0.25 mM, MDA-MB-231 cells, 37° C. 3 h, KI,app from IC50 via Cheng/Prusoff. Here is the method:
Inhibition of ENPP1 Hydrolysis of AMP p-Nitrophenyl Ester on MDA-MB-231 Cells (Assay 2)
ENPP1 is normally expressed on the human metastatic breast cancer cell line MDA-MB-231. Hydrolysis of the p-nitrophenyl ester of AMP (pNP-AMP), an isostere of ATP, is selectively catalyzed by ENPP1 in the supernatant of MDA-MB-231 cell cultures. Inhibition of the hydrolysis of pNP-AMP by MDA-MB-231 at pH 7.4 and 37° C. is a good model of physiologically relevant activity of membrane-bound ENPP1 at disease-relevant expression levels.
MDA-MB-231 cells were harvested using TypLE Express Enzyme digestion and suspended in 100 μL of Leibovitz's L-15 Medium, 20% FBS, seeding the cells in a 96-well assay plate with 4.5×10^4 cells/well. Cells were incubated at 37 C with 1% CO2 for 24 h. In a separate dilution plate, 2× of top dose of compound was prepared in phenol-red free 1640 medium without FBS and then 1:3 serial diluted in the same medium. The cell culture medium of L15 medium was aspirated carefully and cells were washed with PBS once, and 50 μL per well of test compound or DMSO blank are added to the assay plate. Substrate mix (50 μL; 0.5 mM pNP-AMP in phenol-red free 1640 media without FBS) was added for a pNP-AMP final concentration of 0.25 mM. The system was incubated at 37° C. for 3 h.

In the next experiment the target is ENPP-1 ECD (Homo sapiens (Human), UniProt P22413). Nature of the experiment: Inhibition of ENPP1 hydrolysis of 2′,3′-cGAMP (Assay 1). The following applies: AMP-Glo luminescence, KI from IC50 via Cheng/Prusoff.
Sequence of ENPP-1 ECD (P22413 98-925): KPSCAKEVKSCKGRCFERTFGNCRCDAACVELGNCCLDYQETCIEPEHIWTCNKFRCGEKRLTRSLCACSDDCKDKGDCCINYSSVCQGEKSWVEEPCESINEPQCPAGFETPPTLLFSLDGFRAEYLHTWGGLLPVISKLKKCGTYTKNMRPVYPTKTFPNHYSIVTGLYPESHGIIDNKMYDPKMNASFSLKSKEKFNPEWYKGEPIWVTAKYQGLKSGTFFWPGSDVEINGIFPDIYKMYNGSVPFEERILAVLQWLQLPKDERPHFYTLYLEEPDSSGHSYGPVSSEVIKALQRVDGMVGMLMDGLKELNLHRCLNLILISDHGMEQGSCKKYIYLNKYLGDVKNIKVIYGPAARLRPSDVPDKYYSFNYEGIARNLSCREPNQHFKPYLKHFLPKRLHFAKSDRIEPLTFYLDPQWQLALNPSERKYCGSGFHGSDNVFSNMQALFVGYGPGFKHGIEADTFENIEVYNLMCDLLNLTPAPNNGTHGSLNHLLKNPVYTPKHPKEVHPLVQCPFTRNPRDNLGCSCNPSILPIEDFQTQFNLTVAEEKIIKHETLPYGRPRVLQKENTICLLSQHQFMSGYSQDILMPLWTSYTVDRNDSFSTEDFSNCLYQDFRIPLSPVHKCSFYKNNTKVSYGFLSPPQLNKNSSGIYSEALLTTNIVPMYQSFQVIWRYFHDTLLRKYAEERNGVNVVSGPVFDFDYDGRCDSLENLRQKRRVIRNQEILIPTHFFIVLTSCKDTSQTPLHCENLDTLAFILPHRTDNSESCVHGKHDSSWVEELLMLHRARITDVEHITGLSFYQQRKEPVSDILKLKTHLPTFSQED
Setting [2] is: read-out: Assay 2 KI,app values (class).
[3] abbreviates: Assay 1 KI values (class), 2,3-cGAMP 24 μM.
[4] abbreviates: read-out: Assay 1 KI, 2,3-cGAMP 24 μM.
Setting [5] is: read-out: Assay 1 KI values (class), 2,3-cGAMP 24 μM.

Read-outs that look alike come from different tables or passages of the source.

Ki data for 23 compounds are collected here from US20240376113A1 (Volastra Therapeutics, Inc., priority 2020, published 2024).

Sequence of ENPP1 on MDA-MB-231 cells (P22413 whole entry): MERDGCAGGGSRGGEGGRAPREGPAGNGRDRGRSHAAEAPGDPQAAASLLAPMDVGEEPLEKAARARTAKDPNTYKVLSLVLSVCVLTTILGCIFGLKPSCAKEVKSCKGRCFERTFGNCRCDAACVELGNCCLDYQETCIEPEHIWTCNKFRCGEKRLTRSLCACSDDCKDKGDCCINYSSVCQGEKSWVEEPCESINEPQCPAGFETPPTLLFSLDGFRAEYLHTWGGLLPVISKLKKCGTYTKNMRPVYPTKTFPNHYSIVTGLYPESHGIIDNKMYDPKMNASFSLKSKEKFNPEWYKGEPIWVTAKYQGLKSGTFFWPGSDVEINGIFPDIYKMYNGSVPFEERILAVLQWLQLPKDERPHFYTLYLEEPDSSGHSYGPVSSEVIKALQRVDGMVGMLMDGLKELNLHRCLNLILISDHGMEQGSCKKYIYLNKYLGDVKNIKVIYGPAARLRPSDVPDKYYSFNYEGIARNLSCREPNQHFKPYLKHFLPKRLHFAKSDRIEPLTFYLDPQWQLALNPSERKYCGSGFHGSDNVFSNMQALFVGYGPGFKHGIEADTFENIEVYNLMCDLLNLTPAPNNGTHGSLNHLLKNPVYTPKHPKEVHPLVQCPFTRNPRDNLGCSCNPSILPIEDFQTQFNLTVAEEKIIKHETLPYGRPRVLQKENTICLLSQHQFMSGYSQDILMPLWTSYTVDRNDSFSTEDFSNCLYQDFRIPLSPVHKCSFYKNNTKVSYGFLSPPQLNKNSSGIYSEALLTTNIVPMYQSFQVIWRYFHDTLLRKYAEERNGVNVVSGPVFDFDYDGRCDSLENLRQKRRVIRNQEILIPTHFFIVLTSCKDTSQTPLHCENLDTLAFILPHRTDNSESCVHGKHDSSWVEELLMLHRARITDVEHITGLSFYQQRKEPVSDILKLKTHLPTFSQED
Experimental for ENPP-1 ECD: Test compounds were plated in a 3× dilution scheme in a 384 well plate.

As to `Cc1nc2ncnn2c(N2CCCC2)c1Cc1ccc(S(N)(=O)=O)cc1` [Compound 9, 4-((5-methyl-7-(pyrrolidin-1-yl)-[1,2,4]triazolo[1,5-a]pyrimidin-6-yl)methyl)benzenesulfonamide], the Ki is 32.4 nM in experiment [1] (read-out: Assay 2 KI, app); more than 10 nM in experiment [1] (setting [2]); less than 3 nM at ENPP-1 ECD (setting [3]); 0.569 nM at ENPP-1 ECD (setting [4]).
Consider `COCCS(=N)(=O)c1ccc(Cc2c(C)nc3ncnn3c2N(C)C)cc1` (centres unmarked) [Compound 60, (4-{[7-(dimethylamino)-5-methyl-[1,2,4]triazolo[1,5-a]pyrimidin-6-yl]methyl}phenyl)(imino)(2-methoxyethyl)-λ^6-sulfanone], for which the Ki in experiment [1] (read-out: Assay 2 KI, app) is 6.25 nM; in experiment [1] (setting [2]), less than 10 nM; on ENPP-1 ECD (setting [3]), less than 3 nM; at ENPP-1 ECD (setting [4]), 0.0862 nM.
The corresponding values for `CN(C)c1c(Cc2ccc(S(C)(=N)=O)cc2)c(C#N)nc2ncnn12` (centres unmarked) [Compound 79, 7-(dimethylamino)-6-({4-[imino(methyl)oxo-λ^6-sulfanyl]phenyl}methyl)-[1,2,4]triazolo[1,5-a]pyrimidine-5-carbonitrile] are 74.4 nM, more than 10 nM, less than 3 nM and 2.86 nM.
Consider `Cc1nc2ncnn2c(N(C)C)c1Cc1ccc(P(=O)(O)O)cc1` [Compound 5, (4-{[7-(dimethylamino)-5-methyl-[1,2,4]triazolo[1,5-a]pyrimidin-6-yl]methyl}phenyl)phosphonic acid], for which the Ki is 7.94 nM in experiment [1] (read-out: Assay 2 KI, app); less than 10 nM in experiment [1] (setting [2]); less than 3 nM at ENPP-1 ECD (setting [3]); 0.851 nM at ENPP-1 ECD (setting [4]).
The corresponding values for `Cc1nc2ncnn2c(N2CCCC2)c1Cc1ccc(B(O)O)cc1` [Compound 81, (4-{[5-methyl-7-(pyrrolidin-1-yl)-[1,2,4]triazolo[1,5-a]pyrimidin-6-yl]methyl}phenyl)boronic acid] are 13.5 nM, more than 10 nM, less than 3 nM and 0.817 nM.
For the compound `Cc1nc2ncnn2c(N(C)C)c1Cc1ccc(S(=N)(=O)CCC(=O)O)cc1` (centres unmarked) [Compound 72, 3-[(4-{[7-(dimethylamino)-5-methyl-[1,2,4]triazolo[1,5-a]pyrimidin-6-yl]methyl}phenyl)(imino)oxo-λ^6-sulfanyl]propanoic acid], the Ki in experiment [1] (read-out: Assay 2 KI, app) is 0.769 nM; in experiment [1] (setting [2]), less than 10 nM; at ENPP-1 ECD (setting [3]), less than 3 nM; at ENPP-1 ECD (setting [4]) it was 0.0285 nM.
The corresponding values for `Cc1nc2ncnn2c(N2CCCCC2)c1Cc1ccc(S(C)(=N)=O)cc1` (centres unmarked) [Compound 16, imino(methyl)(4-((5-methyl-7-(piperidin-1-yl)-[1,2,4]triazolo[1,5-a]pyrimidin-6-yl)methyl)phenyl)-λ^6-sulfanone] are 14.9 nM, more than 10 nM, less than 3 nM and 0.0814 nM.
In the case of `Cc1nc2nccn2c(N(C)C)c1Cc1ccc(S(C)(=N)=O)cc1` (centres unmarked) [Compound 29, (4-{[5-(dimethylamino)-7-methylimidazo[1,2-a]pyrimidin-6-yl]methyl}phenyl)(imino)methyl-λ^6-sulfanone], the Ki in experiment [1] (read-out: Assay 2 KI, app) was 12.2 nM; in experiment [1] (setting [2]), more than 10 nM; on ENPP-1 ECD (setting [3]), less than 3 nM; on ENPP-1 ECD (setting [4]), 0.252 nM.
Turning to `Cc1cc2ncnn2c(N2CCCC2)c1Cc1ccc(S(C)(=N)=O)cc1` (centres unmarked) [Compound 75, imino(methyl)(4-{[7-methyl-5-(pyrrolidin-1-yl)-[1,2,4]triazolo[1,5-a]pyridin-6-yl]methyl}phenyl)-λ^6-sulfanone], the Ki is 36.7 nM in experiment [1] (read-out: Assay 2 KI, app); more than 10 nM in experiment [1] (setting [2]); less than 3 nM on ENPP-1 ECD (setting [3]).
On to `Cc1nc2ncnn2c(N2CCC2)c1Cc1ccc(S(C)(=N)=O)cc1` (centres unmarked) [Compound 10, (4-((7-(azetidin-1-yl)-5-methyl-[1,2,4]triazolo[1,5-a]pyrimidin-6-yl)methyl)phenyl)(imino)(methyl)-λ^6-sulfanone], for which the Ki in experiment [1] (read-out: Assay 2 KI, app) is 224 nM; in experiment [1] (setting [2]) it was more than 10 nM; on ENPP-1 ECD (setting [3]), 3 to 300 nM; on ENPP-1 ECD (setting [4]) it was 3.12 nM.
For the compound `Cc1nc2ncnn2c(N2C3CCCC2CC3)c1Cc1ccc(S(C)(=N)=O)cc1` (centres unmarked) [Compound 47], the Ki at ENPP-1 ECD (setting [3]) was 3 to 300 nM; on ENPP-1 ECD (setting [4]), 50.9 nM.
The like results for `Cc1nc2ncnn2c(N2CC3CC2C3)c1Cc1ccc(S(C)(=N)=O)cc1` (centres unmarked) [Compound 45, {4-[(7-{2-azabicyclo[2.1.1]heptan-2-yl}-5-methyl-[1,2,4]triazolo[1,5-a]pyrimidin-6-yl)methyl]phenyl}(imino)methyl-λ^6-sulfanone] were, in that order, 3 to 300 nM and 9.83 nM.
The corresponding values for `CCN(CC)c1c(Cc2ccc(S(C)(=N)=O)cc2)c(C)nc2ncnn12` (centres unmarked) [Compound 38] are 3 to 300 nM and 37.9 nM.
As for `CN(C)c1c(Cc2ccc([S@](C)(=N)=O)cc2)c(Cl)nc2ncnn12` [Compound 74b], the values for the Ki at ENPP-1 ECD (setting [5]) and on ENPP-1 ECD (setting [4]) were 3 to 300 nM and 9.97 nM, respectively.
On to `Cc1nc2ncnn2cc1Cc1ccc(S(C)(=N)=O)cc1` (centres unmarked) [Compound 70, imino(methyl)[4-({5-methyl-[1,2,4]triazolo[1,5-a]pyrimidin-6-yl}methyl)phenyl]-λ6-sulfanone], for which the Ki at ENPP-1 ECD (setting [3]) is 3 to 300 nM; at ENPP-1 ECD (setting [4]), 179 nM.
As for “3-[(4-{[7-(dimethylamino)-5-methyl-[1,2,4]triazolo[1,5-a]pyrimidin-6-yl]methyl}phenyl)(imino)oxo-λ^6-sulfanyl]propaneitrile [Compound 61]”, the Ki is less than 3 nM at ENPP-1 ECD (setting [5]) and 0.375 nM at ENPP-1 ECD (setting [4]).
Turning to `COc1nc2ncnn2c(N(C)C)c1Cc1ccc([S@](C)(=N)=O)cc1` [Compound 88b], the Ki at ENPP-1 ECD (setting [4]) was more than 15 nM.
On ENPP-1 ECD (setting [3]), `Cc1nc2ncnn2c(N2CC(C)(C)C2)c1Cc1ccc(S(C)(=N)=O)cc1` (centres unmarked) [Compound 42, (4-{[7-(3,3-dimethylazetidin-1-yl)-5-methyl-[1,2,4]triazolo[1,5-a]pyrimidin-6-yl]methyl}phenyl)(imino)methyl-λ^6-sulfanone] registered a Ki of 3 to 300 nM.
For the compound `Cc1nc2ncnn2c(N(C)C)c1Cc1ccc(S(=N)(=O)C2COC2)cc1` (centres unmarked) [Compound 62, [(4-{[7-(dimethylamino)-5-methyl-[1,2,4]triazolo[1,5-a]pyrimidin-6-yl]methyl}phenyl)(oxetan-3-yl)imino-λ^6-sulfanyl]one], the Ki is less than 3 nM at ENPP-1 ECD (setting [3]) and 0.19 nM at ENPP-1 ECD (setting [4]).
Turning to `Cc1nc2ncnn2c(N(C)C)c1Cc1ccc([S@](C)(=N)=O)cc1` (single isomer, unassigned) [Compound 49b], the Ki is less than 3 nM on ENPP-1 ECD (setting [5]) and 0.356 nM at ENPP-1 ECD (setting [4]).
Consider `CN(C)c1c(Cc2ccc(S(C)(=N)=O)cc2)c(C(F)(F)F)nc2ncnn12` (centres unmarked) [Compound 51], for which the results for the Ki at ENPP-1 ECD (setting [3]) and on ENPP-1 ECD (setting [4]) were 3 to 300 nM and 5.56 nM, respectively.
As to `Cc1c(Cc2ccc(S(C)(=N)=O)cc2)c(N(C)C)nc2ncnn12` (centres unmarked) [Compound 86, (4-{[5-(dimethylamino)-7-methyl-[1,2,4]triazolo[1,5-a]pyrimidin-6-yl]methyl}phenyl)(imino)methyl-λ^6-sulfanone], the Ki in experiment [1] (read-out: Assay 2 KI, app) is 8.29 nM.
On to `Cc1nc2ncnn2c(-n2cccn2)c1Cc1ccc(S(C)(=N)=O)cc1` (centres unmarked) [Compound 18, imino(methyl)(4-((5-methyl-7-(1H-pyrazol-1-yl)-[1,2,4]triazolo[1,5-a]pyrimidin-6-yl)methyl)phenyl)-λ^6-sulfanone], for which the Ki at ENPP-1 ECD (setting [3]) is 3 to 300 nM; on ENPP-1 ECD (setting [4]), 6.99 nM.
